Patent US20170367390A1, “USE OF ELLAGIC ACID DIHYDRATE IN FOOD PRODUCTS AND NUTRACEUTICALS” (HALO LIFE SCIENCE, LLC, priority 2014, published 2017)
Entries after “also recorded” stand apart in the source; their conditions may differ.

Tests used:
[1] = Activity level in mice; format: in vivo, mouse; settings: mice, Applicant's observation
Text: Activity levels in mice treated with ellagic acid dihydrate may be quantified by several procedures, such as those outlined in Turri, M. et al.; QTL Analysis Identifies Multiple Behavioral Dimensions in Ethological Tests of Anxiety in Laboratory Mice; Current Biology; 2001; 11(10): 725-734. Two examples of procedures taught therein follows. Gross Locomotor Activity in Home Cage: Mice are caged singly several days prior to home cage activity monitoring and subsequent testing. Activity in home cages are measured during the first 2 hours of the dark cycle on two consecutive days. Two infrared photo emitter-detector pairs, located outside the clear plastic home cage that divide the cage into three equal areas, are used to record gross locomotor activity on the floor of the home cage as the animal breaks the photo beams. The beam-break activity score consists of the square root of the number of beam breaks for each detector summed across the two test days. Magnitude of Activity in Home Cage: Mice are caged singly several days prior to home cage activity monitoring and subsequent testing. Activity in home cages are measured during the first 2 hours of the dark cycle on two consecutive days. An infrared motion detector located above the top of the home cage is employed to converts all motion sensed within the home cage into arbitrary units, based on the magnitude of activity detected.

[2] = Weight loss and blood glucose in female SWV mice with STZ induced diabetes, 30 days gavage; format: in vivo, mouse; settings: thirty days
Description: Weight loss and blood glucose in diabetes induced mice treated with ellagic acid was determined and weight loss and blood glucose in mice treated with ellagic acid dihydrate may be determined by the following procedures. Induction of Diabetes: Diabetes is induced in mice by intraperitoneal injection with Streptozotocin (STZ 40 mg/kg) daily for five days. The mice are considered hyperglycemic when the glucose level of each dam is above 200 mg/dL. The mice are fasted for 4 hours before STZ injection and glucose measurement. Treatment: The mice are treated daily for thirty days with ellagic acid or control in the form of a supplemental pill homogenized and suspended in 25% water solution of Cremophor EL. The mice are treated for one month via gavage using the human equivalent dose of 122.4 mg pill/kg of subject (40.6 mg ellagic acid/kg of the subject), the human equivalent does of 40.6 mg ellagic acid/kg of the subject using 98% pure ellagic acid, or control vehicle (25% water solution of Cremophor EL). The human equivalent dose is calculated as described in Example 8. Treatments would start two weeks after the last STZ injection in which hyperglycemia is confirmed in the diabetic mice. The mice would be weighed daily and glucose levels would be measured in fasted animals every five days.

[3] = tested on: MEF cells; assay: Glucose uptake, 2-NBDG labeling, high-content imaging (Operetta), MEFs; format: cell-based, mouse
Description: (§1) Increased glucose uptake was indicated as increasing signal of 2-NBDG ([…]) in cells. Glucose uptake assays were carried out in a final incubation volume of 50 μl consisting of, 2-NBDG), (100 μM) in 1× Phosphate Buffered Saline w/Ca+, Mg+ (PBS++). The same buffer was used for washing cells. Insulin was used as a positive control. All testing compounds were prepared in 10% DMSO and diluted 1:100 for a final concentration of 0.1% DMSO (vehicle). Cells were culture to 70-90% confluence and then washed twice with PBS++. Cells were incubated for 30 minutes at 37° C. in PBS++. Nuclear stain, HCS CellMask stain (blue, Invitrogen), and/or testing compounds (ellagic acid dihydrate, insulin, or vehicle) were added. Cells were incubated for 30 min at 37° C. Cells were washed twice with PBS++ and incubated with 2-NBDG for 10 minutes. Cells were washed thrice with PBS++ and then imaged in PBS++. Alternatively, the final PBS wash was removed and cells were incubated with Accutase (Invitrogen) for 10 min at 37° C., neutralized with 10% FBS in 1×PBS, and analyzed by flow cytometry. An additional experiment was performed to measure glucose uptake in C2Cl2 cells exposed to metformin, insulin and ellagic acid dihydrate 2 (batch 2). FIG. 5C. Glucose uptake in ellagic acid dihydrate treated cell culture was measured and compared to glucose uptake under insulin or ellagic acid treatment. […] Flow cytometry results were run in triplicate with 1000 cells per batch.

[4] = tested on: AKT; assay: AKT:Phos AKT ratio by immunocytochemistry, high-content imaging in C2C12; format: cell-based, mouse; settings: serum starved C2C12, 30 minutes; 4 nM-4 μM for insulin and ellagic acid dihydrate
Description: Stimulation of AKT pathways and MAPK pathways in ellagic acid dihydrate, metformin, and insulin treated cell cultures was performed. Insulin stimulates glucose uptake into cells by increasing GLUT4 activation, and AKT, specifically phos-AKT, signaling alters GLUT4 translocation. […] Cellular assays were performed using mouse myoblast C2C12 cells. […] Serum starved cells (1 hr) were treated for 30 minutes with each of the tested compounds.

[5] = tested on: p44/42 MAPK; assay: p44/42 MAPK:Phos p44/42 MAPK ratio by immunocytochemistry, high-content imaging in C2C12; format: cell-based, mouse; settings: serum starved C2C12, 30 minutes, 0.04 nM
Description: Stimulation of AKT pathways and MAPK pathways in ellagic acid dihydrate, metformin, and insulin treated cell cultures was performed. Insulin stimulates glucose uptake into cells by increasing GLUT4 activation, and AKT, specifically phos-AKT, signaling alters GLUT4 translocation. […] Cellular assays were performed using mouse myoblast C2C12 cells. Relative protein levels of AKT:phos AKT and p44/42 MAPK:phos p44/42 MAPK were determined.
Serum starved cells (1 hr) were treated for 30 minutes with each of the tested compounds. Ratios of phosphorylated to non-phosphorylated proteins were determined using immunocytochemistry labeling (anti-AKT, anti-Phos AKT; or anti-p44/42 MAPK, anti-Phos p44/42 MAPK) on a high-content imaging system (Operetta, Perkin Elmer) using the fluorescent signal of anti-rabbit Alexa 647. Increased phosphorylation is indicated as decrease in signal of AKT:Phos AKT ratio (log 2 scale) and p44/42 MAPK:Phos p44/42 MAPK ratio (log 2 scale) relative to vehicle treated cells.

[6] = tested on: GLUT4-GFP; assay: Localization of glucose transporter GLUT4-GFP, time-lapse confocal microscopy in C2C12; format: cell-based, mouse; settings: C2C12, 4000 nM exposure
Description: Induction of glucose transporter, GLUT-4, in ellagic acid dihydrate treated cell cultures was studied. Cellular assays were performed using mouse myoblast C2C12 cells. The cells were infected with a fusion glucose transporter 4 green fluorescent protein (GLUT4-GFP). This protein allows the visualization of GLUT4 by imaging the GFP under fluorescent time-lapse microscopy. Frames were compiled to produce time-lapse images of cellular changes with no treatment or treatment with insulin. The localization of glucose transporter (GLUT4-GFP) was performed in final incubation volume of 505 μL, consisting of 500 μl of Hank's Buffer (Invitrogen) and 5 μl of tested compounds. Insulin was used as positive controls and vehicle (0.1% DMSO) as the negative control. All test compounds were prepared in 10% DMSO and diluted 1:100 for a final concentration of 0.1% DMSO (vehicle). The cells were rinsed in Hank's Buffer thrice and then incubated in Hank's Buffer at 37° C. for one hour. The test compounds were added (ellagic acid dihydrate, insulin, or vehicle) and the cells were imaged using laser-confocal microscopy (Leica TCS SP5 X) with FITC fluorescent filters to determine changes in GLUT4-GFP localization. Time-lapse images (TIF) were collected and post-processed using Image-J (NIH) for video construction.

[7] = tested on: MEF cells; assay: Glucose uptake, 2-NBDG labeling, flow cytometry, MEFs; format: cell-based, mouse; settings: flow cytometry
Description: as §1, with “Cellular assays were performed using mouse myoblast C2C12 cells and MEF cells. […] Increased” for “Increased”

[8] = tested on: mouse myoblast C2C12 cells; assay: Glucose uptake, 2-NBDG labeling, flow cytometry, C2C12; format: cell-based
Description: Cellular assays were performed using mouse myoblast C2C12 cells and MEF cells. […] Increased glucose uptake was indicated as increasing signal of 2-NBDG ([…]) in cells. Glucose uptake assays were carried out in a final incubation volume of 50 μl consisting of, 2-NBDG), (100 μM) in 1× Phosphate Buffered Saline w/Ca+, Mg+ (PBS++). The same buffer was used for washing cells. Insulin was used as a positive control. All testing compounds were prepared in 10% DMSO and diluted 1:100 for a final concentration of 0.1% DMSO (vehicle). Cells were culture to 70-90% confluence and then washed twice with PBS++. Cells were incubated for 30 minutes at 37° C. in PBS++. Nuclear stain, HCS CellMask stain (blue, Invitrogen), and/or testing compounds (ellagic acid dihydrate, insulin, or vehicle) were added. Cells were incubated for 30 min at 37° C. Cells were washed twice with PBS++ and incubated with 2-NBDG for 10 minutes. Cells were washed thrice with PBS++ and then imaged in PBS++. Alternatively, the final PBS wash was removed and cells were incubated with Accutase (Invitrogen) for 10 min at 37° C., neutralized with 10% FBS in 1×PBS, and analyzed by flow cytometry. An additional experiment was performed to measure glucose uptake in C2Cl2 cells exposed to metformin, insulin and ellagic acid dihydrate 2 (batch 2). FIG. 5C.

Row | Compound | activity levels [1] | mean glucose level values, treated versus control mice ([2]; STZ diabetic mice) | average loss of body weight ([2]; female SWV mice with STZ induced diabetes, human equivalent dose (40.6 mg ellagic acid/kg), gavage daily, control lost 2.2%) [%] | dose effect for increasing glucose uptake [3] | AKT:Phos AKT ratio (log 2 scale) relative to vehicle treated cells [4] | p44/42 MAPK:Phos p44/42 MAPK ratio relative to vehicle [5] | GLUT4-GFP localization [6] | ruffling of filopodia at the surface of the cell [6] | increased glucose uptake (percent change relative to vehicle) ([7]; 400 nM exposure, fibroblasts (MEFs)) [%] | dose effect for increasing glucose uptake ([7]; MEFs, 2-NBDG) | glucose uptake (2-NBDG signal) relative to vehicle ([7]; MEFs, vehicle 0.1% DMSO) | p44/42 MAPK:Phos p44/42 MAPK ratio relative to vehicle ([5]; 400 nM) | dose effect for increasing glucose uptake ([8]; C2C12, flow cytometry, 2-NBDG) | glucose uptake (2-NBDG signal) relative to vehicle ([8]; C2C12, flow cytometry, vehicle 0.1% DMSO) | increase in glucose uptake in myoblasts relative to fibroblasts ([8]; C2C12 myoblasts versus MEF fibroblasts) [×] | glucose uptake (2-NBDG signal) ([3]; versus vehicle (Neg, 0.1% DMSO))
1 | O=c1oc2c(O)c(O)cc3c(=O)oc4c(O)c(O)cc1c4c23 [ellagic acid] | increased activity levels | no significant differences between the mean glucose level values | 11.7 | little to no glucose uptake per unit dose; also recorded: no such dose effect was seen | – | – | – | – | – | – | – | – | – | – | – | –
2 | CN(C)C(=N)N=C(N)N [metformin] | – | – | – | – | increase in AKT relative to phosphorylation of AKT | increased the ratio of p44/42 MAPK | – | – | – | – | – | – | – | – | – | –
3 | insulin [reference compound] | – | – | – | dose effect for increasing glucose uptake | −0.5 | – | decrease in GLUT4-GFP around the cell nucleus and a parallel increase of movement at the membrane | rapid production of numerous projections (ruffling of filopodia) at the surface of the cell | 32 | dose effect for increasing glucose uptake | significant increase in glucose uptake relative to the vehicle | increase in p44/42 MAPK | dose effect for increasing glucose uptake | significant increase in glucose uptake relative to the vehicle | ~4 | showed an increase in glucose uptake
